Assay results: patent publication EP4810492A1, “NMT INHIBITOR, PREPARATION METHOD THEREFOR, AND USE THEREOF” (Nanjing Synnocare Pharmaceutical Technology Co., Ltd., priority 2023, dated 2025)
Read-outs that look alike come from different tables or passages of the source.

What was measured:
[1] = system: MV-4-11 cells; test: Anti-proliferative activity against MV-4-11 cells (cell viability chemiluminescence); format: cell-based; conditions: MV4-11, 72 h, MV-4-11 human monocytic leukemia cells, three days of exposure
Experimental: This study utilized a cell proliferation assay to analyze the cytotoxicity of MV-4-11 human monocytic leukemia cells after three days of exposure to NMT1 inhibitors. The MV-4-11 cell line was purchased from Nanjing Cobuilder Biotechnology Co., Ltd., and cultured in IMDM medium (Viva cell) in an incubator (Thermo) at 37 °C with 5% CO2. In this experiment, NMT1 inhibitors were dissolved in DMSO to obtain 600 µM stock solutions. Dose-response solutions were prepared with a top endpoint compound concentration of 3 µM, followed by three-fold serial dilutions in DMSO, totaling eight data points. The final concentration of DMSO was 0.5%.
MV-4-11 cells were seeded into a white 96-well plate, 80 µL of cell suspension per well, containing 6000 MV-4-11 cells. The cell plate was placed in the CO2 incubator for overnight culture. Then, 20 µL of NMT1 inhibitor solutions at different concentrations were added to the wells. The 96-well plate was placed back into the incubator for three days. Another cell plate was prepared, and the signal was read on the day of drug addition to serve as the maximum value (Max value in the equation below) for data analysis. To this cell plate, 25 µL of cell viability chemiluminescence detection reagent was added per well, followed by incubation at room temperature for 10 minutes to stabilize the luminescence signal. A multi-label analyzer was used for reading.
The raw data were converted into inhibition rates using the equation (Sample - Min) / (Max - Min) * 100%. The IC50 values were then determined by fitting a four-parameter curve (using the "log(inhibitor) vs. response - Variable slope" model in GraphPad Prism). Min: wells treated with 0.5% DMSO; Max: Day 0 wells. Table 1 provides the inhibitory activity of the compounds of the invention on MV-4-11 cell proliferation. Table 1: Compound Inhibitory Activity against NMT1 Enzyme (IC50) and Anti-proliferative Activity against MV-4-11 Cell line (IC50)

[2] = Plasma concentrations in mice following oral administration; conditions: ICR, mouse, po, 10 mg/kg
Source text: This study evaluated the plasma concentrations of the compounds of the present invention in mice. ICR mice were procured from JOINN Laboratories (Suzhou) Co., Ltd. At the initiation of dosing, the animals were 6-8 weeks old and weighed 18-25 g. Mice were housed in transparent plastic cages (400 mm*240 mm*200 mm). The animal facility maintained a 12-hour light/12-hour dark cycle (lights on 07:00-19:00) using fluorescent lighting. The dark period may be intermittently interrupted as required for study-related activities. Ambient temperature and relative humidity were controlled within 20-26 °C and 40-70%, respectively. Animals were fed certified rodent chow and provided with drinking water filtered and sterilized through an ultrapure water system. All animals had ad libitum access to water throughout the study. Animals were fasted for at least 12 hours prior to dosing, and food was restored 4 hours post-dosing.
Prior to dosing, body weights were recorded, and healthy animals with similar weights were selected and randomly assigned to groups (n = 3 per group) based on body weight. The compounds were formulated in a 0.5% aqueous carboxymethyl cellulose (CMC) solution and administered orally at a single dose of 10 mg/kg. Blood samples (≥0.2 mL) were collected via venipuncture at 1 h and 4 h post-dose into EDTA-K2 anticoagulant tubes. Tubes were gently inverted to mix, immediately placed in an ice-water bath, and rapidly centrifuged at 4,000 rpm for 10 min at 4 °C to separate plasma. Plasma was stored at -70 °C until analysis.
Calibration curve and QC plasma samples: Working solutions for the calibration curve and QC samples were prepared using 80% methanol in water (Thermo Fisher) as the diluent. To prepare plasma calibration standards and QC samples, 5 µL of each working solution was added to 45 µL of blank plasma and mixed. To the prepared calibration and QC samples, 300 µL of internal standard solution (tolbutamide at 8 µg/mL in acetonitrile, Thermo Fisher) was added. […] The supernatant was collected and analyzed by liquid chromatography-tandem mass spectrometry (LC-MS/MS; AB Sciex API 5000).
Plasma sample pretreatment: After thawing at room temperature, 50 µL of each plasma sample was mixed with 300 µL of the internal standard solution (tolbutamide at 8 µg/mL in acetonitrile, Thermo Fisher). […] The supernatant was collected and analyzed by LC-MS/MS (AB Sciex API 5000).
Raw chromatograms, concentrations, and accuracy data were generated using Analyst software version 1.6.3.

[3] = molecular target: T1, NMT1 enzyme (Homo sapiens, UniProt P30419); test: Inhibitory activity on NMT1 enzyme catalysis (fluorescence intensity assay); format: biochemical
T1 sequence (P30419 1-496): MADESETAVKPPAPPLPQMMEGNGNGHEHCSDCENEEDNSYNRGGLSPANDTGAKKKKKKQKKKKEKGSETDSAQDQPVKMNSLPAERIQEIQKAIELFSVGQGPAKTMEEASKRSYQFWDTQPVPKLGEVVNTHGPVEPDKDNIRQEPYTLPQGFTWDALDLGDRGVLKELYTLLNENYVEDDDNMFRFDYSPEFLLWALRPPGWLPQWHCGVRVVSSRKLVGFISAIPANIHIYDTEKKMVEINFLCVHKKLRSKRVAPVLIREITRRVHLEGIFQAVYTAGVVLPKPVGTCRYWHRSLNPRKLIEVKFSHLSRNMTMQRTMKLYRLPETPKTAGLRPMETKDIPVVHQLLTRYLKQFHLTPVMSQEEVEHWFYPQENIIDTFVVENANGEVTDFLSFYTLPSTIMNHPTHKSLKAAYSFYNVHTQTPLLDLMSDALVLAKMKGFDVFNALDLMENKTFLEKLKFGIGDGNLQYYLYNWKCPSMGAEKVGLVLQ
Experimental: This study evaluated the ability of the compounds of the invention to inhibit NMT1 catalytic activity in vitro. […] The final concentration of the NMT1 enzyme was 6 nM, the final concentration of CPM (Reactive thiol fluorescence probe, Invitrogen, D346) was 1 µM, the final concentration of HSPP60 SRC was 20 µM, and the final concentration of DMSO was 0.5%.
Compounds were dissolved in DMSO to obtain 10 mM stock solutions. Dose-response solutions were prepared with a top endpoint compound concentration of 3 mM, followed by three-fold serial dilutions in DMSO, totaling ten data points. […] Then, 2.5 µL of the NMT1 enzyme working solution was added to the 384-well assay plate, followed by incubation at 25 °C for 10 minutes. Subsequently, 5 µL of the CPM and myristoyl-CoA working solution was added, the plate was centrifuged at 1000 rpm for 1 minute, and then 2.5 µL of the HSPP60 SRC working solution was added to initiate the reaction. The reaction was incubated at 25 °C for 45 minutes.
The IC50 curve of the compounds was fitted using the software XLfit 5.5.0 according to the nonlinear regression equation.

[4] = 6 nM NMT1 enzyme, 1.25 µM myristoyl-CoA, 20 µM HSPP60 SRC peptide, 45 minutes at 25 °C, read-out: NMT1 (IC50)

Row | SMILES | IC50 [1] [nM] | concentration at 1 h [2] [ng/mL] | concentration at 4 h [2] [ng/mL] | concentration at 8 h [2] [ng/mL] | IC50 [3, 4] [nM] | IC50 ([1]; Homo sapiens) [nM] | IC50 [3] [nM]
1 | Cc1nn(C)c(C)c1NS(=O)(=O)c1c(Cl)cc(-c2ccc3sc4c(c3c2)CNCC4)cc1Cl [Compound 1, 2,6-dichloro-4-(1,2,3,4-tetrahydrobenzo[4,5]thieno[3,2-c]pyridin-8-yl)-N-(1,3,5-trimethyl-1H-pyrazol-4-yl)benzenesulfonamide] | 11.1 | 1820 ± 493 | 1350 ± 15 | 723 ± 363 | 3.44 | – | –
2 | Cc1c(NS(=O)(=O)c2c(Cl)cc(-c3ccc4sc5c(c4c3)CNCC5)cc2Cl)c(CC(F)(F)F)nn1C [Compound 17] | 62.5 | 5100 ± 2700 | 4080 ± 1970 | 3000 ± 1020 | 5.62 | – | –
3 | Cc1c(NS(=O)(=O)c2c(Cl)cc(-c3ccc4sc5c(c4c3)CCNC5)cc2Cl)c(CC(C)C)nn1C [Compound 54] | 38 | 3320 ± 1200 | 2310 ± 211 | 981 ± 343 | 4.73 | – | –
4 | Cc1c(NS(=O)(=O)c2c(Cl)cc(-c3ccc4oc5c(c4c3)CNCC5)cc2Cl)c(CC#N)nn1C [Compound B18] | 37 | 2490 ± 1200 | 1670 ± 467 | 1040 ± 157 | 4.85 | – | –
5 | Cc1c(NS(=O)(=O)c2c(Cl)cc(-c3ccc4oc5c(c4c3)CNCC5)cc2Cl)c(CC2CC2)nn1C [Compound B26] | 11.4 | 4630 ± 2020 | 3380 ± 575 | 2150 ± 206 | 2.87 | – | –
6 | Cc1c(NS(=O)(=O)c2ccc(-c3ccc4sc5c(c4c3)CNCC5)cc2)c(CC2CC2)nn1C [Compound B30] | 12.3 | – | – | – | 2.59 | – | –
7 | Cc1c(NS(=O)(=O)c2c(Cl)cc(-c3ccc4oc5c(c4c3)CNCC5)cc2Cl)c(CC(F)(F)F)nn1C [Compound B34] | 61.8 | – | – | – | 5.03 | – | –
8 | Cc1c(NS(=O)(=O)c2c(Cl)cc(N3CCc4oc5c(c4C3)CNCC5)cc2Cl)c(CC(F)(F)F)nn1C [Compound B36] | 26.2 | – | – | – | 2.75 | – | –
9 | Cc1c(NS(=O)(=O)c2ccc(-c3ccc4oc5c(c4c3)CNCC5)cc2Cl)c(CC(F)(F)F)nn1C [Compound B39] | 40.1 | 9760 ± 410 | 8530 ± 1170 | 6730 ± 1450 | 4.76 | – | –
10 | Cc1c(NS(=O)(=O)c2ccc(-c3ccc4sc5c(c4c3)CNCC5)cc2)c(CC(F)(F)F)nn1C [Compound B40] | – | – | – | – | – | 11.3 | 2.7
11 | Cc1c(NS(=O)(=O)c2c(Cl)cc(-c3ccc4oc5c(c4c3)CNCC5)cc2Cl)c(CCF)nn1C [Compound B45] | 9.51 | 5040 ± 1820 | 3800 ± 621 | 3730 ± 1280 | 1.94 | – | –
12 | Cc1c(NS(=O)(=O)c2c(Cl)cc(N3CCc4sc5c(c4C3)CNCC5)cc2Cl)c(CCF)nn1C [Compound B46] | 3.61 | – | – | – | 2.03 | – | –
13 | Cc1c(NS(=O)(=O)c2c(Cl)cc(-c3ccc4sc5c(c4c3)CCNC5)cc2Cl)c(CC(F)F)nn1C [Compound B55] | 21.1 | – | – | – | 3.72 | – | –
14 | Cc1c(NS(=O)(=O)c2c(Cl)cc(-c3ccc4oc5c(c4c3)CNCC5)cc2Cl)c(CC(F)F)nn1C [Compound B56] | 19.6 | – | – | – | 3.49 | – | –
15 | Cc1c(NS(=O)(=O)c2c(Cl)cc(N3CCc4sc5c(c4C3)CNCC5)cc2Cl)c(CC(F)F)nn1C [Compound B57] | 11.8 | – | – | – | 2.95 | – | –
16 | Cc1c(NS(=O)(=O)c2c(Cl)cc(N3CCc4oc5c(c4C3)CCNC5)cc2Cl)c(CC(F)F)nn1C [Compound B58] | 8.97 | – | – | – | 2.08 | – | –
17 | Cc1c(NS(=O)(=O)c2ccc(-c3ccc4sc5c(c4c3)CCNC5)cc2)c(CC(F)F)nn1C [Compound B63] | 20.4 | – | – | – | 3.67 | – | –

The next lines start with results.

Row | IC50 [1] [nM] | concentration at 1 h [2] [ng/mL] | concentration at 4 h [2] [ng/mL] | concentration at 8 h [2] [ng/mL] | IC50 [3, 4] [nM] | SMILES | IC50 ([1]; Homo sapiens) [nM] | IC50 [3] [nM]
18 | 16.6 | – | – | – | 2.21 | Cc1c(NS(=O)(=O)c2ccc(-c3ccc4sc5c(c4c3)CNCC5)cc2Cl)c(CC(F)(F)F)nn1C [Compound B37] | – | –
19 | 3.42 | 3220 ± 650 | 1710 ± 224 | 1570 ± 104 | 1.79 | Cc1c(NS(=O)(=O)c2c(Cl)cc(-c3ccc4sc5c(c4c3)CNCC5)cc2Cl)c(CCF)nn1C [Compound B43] | – | –
20 | 9.27 | – | – | – | 2.08 | Cc1c(NS(=O)(=O)c2c(Cl)cc(-c3ccc4sc5c(c4c3)CCNC5)cc2Cl)c(CCF)nn1C [Compound B44] | – | –
21 | 3.26 | 2960 ± 340 | 1400 ± 240 | 447 ± 71 | 1.89 | Cc1c(NS(=O)(=O)c2ccc(-c3ccc4sc5c(c4c3)CNCC5)cc2Cl)c(CCF)nn1C [Compound B48] | – | –
22 | 19.5 | – | – | – | 2.37 | Cc1c(NS(=O)(=O)c2ccc(-c3ccc4sc5c(c4c3)CCNC5)cc2Cl)c(CCF)nn1C [Compound B49] | – | –
23 | 17.9 | – | – | – | 3.95 | Cc1c(NS(=O)(=O)c2ccc(-c3ccc4oc5c(c4c3)CNCC5)cc2Cl)c(CCF)nn1C [Compound B50] | – | –
24 | 6.05 | – | – | – | 2.51 | Cc1c(NS(=O)(=O)c2ccc(-c3ccc4sc5c(c4c3)CNCC5)cc2)c(CCF)nn1C [Compound B51] | – | –
25 | 17.3 | 3630 ± 990 | 2180 ± 185 | 504 ± 71 | 3.88 | Cc1c(NS(=O)(=O)c2ccc(-c3ccc4sc5c(c4c3)CCNC5)cc2)c(CCF)nn1C [Compound B52] | – | –
26 | 5.45 | – | – | – | 1.79 | Cc1c(NS(=O)(=O)c2c(Cl)cc(-c3ccc4sc5c(c4c3)CNCC5)cc2Cl)c(CC(F)F)nn1C [Compound B54] | – | –
27 | 27 | – | – | – | 5.21 | Cc1c(NS(=O)(=O)c2ccc(-c3ccc4oc5c(c4c3)CNCC5)cc2Cl)c(CC(F)F)nn1C [Compound B61] | – | –
28 | 7.48 | – | – | – | 2.47 | Cc1c(NS(=O)(=O)c2ccc(-c3ccc4sc5c(c4c3)CNCC5)cc2)c(CC(F)F)nn1C [Compound B62] | – | –
